“Also recorded” adds a separate entry of the source.
Columns and labels:
[1] = tested on: skin on the back of male or female guinea pigs; assay: Dermal anesthetic activity, pin-prick method after dermal application; assay type: in vivo, guinea pig; settings: for anesthetic score (dermal anesthetic effect, FIG. 1): after 30 min application, score = average number of six probings not producing a skin twitch, 10% solution of base in DMSO/water
Method: Approximately 18-24 hours before each experiment, the skin on the back of male or female guinea pigs was shaved and depilated with a commercially available hair remover. The anesthetic action of each agent following dermal application was determined using a “pin-prick” method as described by Aberg (Acta Pharmacol Toxicol, 1972, 31: 273-286). Before and at various intervals after treatment, the area of the skin was tested for the presence or absence of a skin twitch in response to six standardized dermal probings with a pointed metal “algesimeter” at a predetermined maximum load of 10 grams. The average number of probings not producing a skin twitch response was designated as the “anesthetic score”. In this test system no response to six stimuli represents a “maximal anesthetic activity”. In the present calculations, the dermal anesthetic activity was calculated from the time of removal of the test article formulation from the skin until skin twitch responses to all but one pinprick were identified. In experiments on the dermal anesthetic activity, a single area of skin 1 inch square was marked off on the middle of the back of each animal. This area was covered by a 1 inch square, 16 layer thick gauze pad onto which was deposited 0.45 ml of a 10% solution of the test agent dissolved in a mixture of water and DMSO. The gauze pad was covered with a 1.5 inch square sheet of Saran Wrap™ which was attached to the surrounding skin with tape. The entire area was then covered by wrapping an elastic bandage around the trunk of the animal. After a predetermined duration of treatment, the coverings were removed and the skin assessed for the presence of anesthesia as described above. Dermal anesthesia tests were performed at ten-minute intervals to measure onset time and duration of dermal anesthetic activity; comparisons were made with reference compounds and vehicle. All test compounds were in the base form and dissolved in DMSO/water when tested for dermal anesthesia.

[2] = tested on: skin on the back of male or female guinea pigs; settings: from U.S. Pat. No. 6,413,987; cited from earlier work
[3] = from U.S. Pat. No. 6,413,987; cited from earlier work
[4] = Analgesic activity; set-up: species or system rats; settings: rat, in vivo
Method: Peripheral mononeuropathy is induced in rats by loose ligation of the sciatic nerve in anesthetized rats. Fourteen days later, the nociceptive threshold is evaluated after animal dosing with drug or vehicle, using graded paw pressure testing to assess hyperalgesia.
Diabetes is induced in rats by intraperitoneal injection of streptozotocin. Three weeks later, the nociceptive threshold is measured after animal dosing using the paw pressure to assess hyperalgesia.

[5] = Dermal / tissue toxicity; settings: in vivo

SMILES | anesthetic score (dermal anesthetic effect, FIG. 1) [1] | onset of dermal anesthetic activity ([1]; comparison of the enantiomers of LAC-34) | duration of action (duration of anesthesia) ([1]; comparison with racemate and other enantiomer, same concentration) | local / dermal anesthetic activity [2] | tissue toxicity [3] | analgesic activity [4] | dermal toxicity [5]
c1ccc(N(CC[C@H]2CCCCN2)C2Cc3ccccc3C2)cc1 [R-LAC-34] | 3.5 | significantly shorter; also recorded: shorter onset of action | shorter duration of action | – | – | – | –
c1ccc(N(CCC2CCCCN2)C2Cc3ccccc3C2)cc1 (racemic) [RS-LAC-34, 2-{2-[N-(2-indanyl)-N-phenylamino]ethyl}piperidine] | – | – | – | active local anesthetic compound | little, if any, tissue toxicity | – | –
c1ccc(N(CC[C@@H]2CCCCN2)C2Cc3ccccc3C2)cc1 [S-LAC-34, S-2-{2-[N-(2-indanyl)-N-phenylamino]ethyl}piperidine] | 2.6 | – | – | – | – | expresses analgesic activity | low dermal toxicity

From US7718674B2, “Methods of relieving neuropathic pain with the S-isomer of 2-{2[N-(2-indanyl)-N-phenylamino]ethyl}piperidine” (Bridge Pharma, Inc., priority 2004, dated 2010)
